Test results reported in patent US9062028B2, “Bicyclic nitrogen containing heteroaryl TGR5 receptor modulators” (Bristol-Myers Squibb Company, priority 2011, dated 2015).
Structures can show the parent of a compound that is named as a salt.

Target: T1, recombinant human TGR5 (Homo sapiens, UniProt Q8TDU6)
T1 construct: expressed in transfected cells
T1 sequence (Q8TDU6 1-330): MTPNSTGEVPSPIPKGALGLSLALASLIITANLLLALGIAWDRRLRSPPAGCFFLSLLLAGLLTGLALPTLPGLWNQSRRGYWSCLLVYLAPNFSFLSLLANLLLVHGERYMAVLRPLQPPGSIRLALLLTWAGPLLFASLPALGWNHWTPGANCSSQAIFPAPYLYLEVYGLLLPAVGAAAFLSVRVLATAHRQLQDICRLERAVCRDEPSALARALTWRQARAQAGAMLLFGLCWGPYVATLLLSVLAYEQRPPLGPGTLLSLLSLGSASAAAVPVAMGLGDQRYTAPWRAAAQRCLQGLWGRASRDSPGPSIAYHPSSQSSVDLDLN
Test: cAMP assay (cAMP accumulation, HTRF) in CHOK1 cells stably expressing TGR5
Type: cell-based
Details: CHOK1 cells stably expressing human TGR5, 30 minutes at RT, 1% DMSO
Experimental: The in vitro modulation of recombinant human TGR5 was determined as follows.
A human TGR5 expression construct of human TGR5 was integrated into the genome of a CHOK1 cell line (Invitrogen). Once a stable CHOK1 cell line was generated, the cells were incubated for 5-10 minutes in culture medium consisting of F-12 (Invitrogen#11765-047) supplemented with 10% fetal bovine serum.
On the day of the cAMP accumulation assay, cells stably expressing the […] TGR5 construct were centrifuged at 1000 rpm for 5 minutes. The medium was aspirated and the cells were resuspended in 5 mL of assay buffer (phosphate-buffered saline with Ca^2+ and Mg^2+, Invitrogen#14040). The cells were counted using 1:2 dilution and then adjusted to 0.4-0.5×10^6 cells/mL in assay buffer, if necessary. Isobutylmethylxanthine (IBMX, Sigma#I5879) was added via a 1:5000 dilution to make a 0.1 mM final concentration and then 10 μL of the media were transferred to each well of a 384 well poly-D-lysine coated solid white plate (BD #35-6661) pre-dotted with 100 nL of with the desired concentration of compound added from a concentrated stock dissolved in dimethyl sulfoxide (DMSO) to give a final concentration of 1% DMSO in the assay. The plates were covered and incubated for 30 minutes at RT. cAMP accumulation was measured using the CisBio homogeneous time resolved fluorescence (HTRF) assay kit (#62AM2PEC) following the manufacturer's protocol. Briefly, 5 μl each of the cAMP-HTRF fluorescence detection reagents were added to each well, and the samples were incubated for at least one hour at room temperature. Fluorescence was excited at 320 nm and measured at 665 and 620 nm using the Envision instrument (Perkin Elmer), the fluorescence ratio of 665/620 was calculated and converted to nanomolar concentrations of cAMP in each well by interpolation from a cAMP standard curve. The concentration-response curves and EC50 values were calculated with a four parameter logistic curve fit equation utilizing Excel/XLfit software (Microsoft and IDBS). The EC50 value was calculated as the concentration of agonist which increased the cAMP concentration to a value halfway between the baseline and the maximum.

Row | EC50 | Compound
1 | 55 nM | Cc1c(Cl)cccc1OCCCC(=O)N1CC2CC2c2c(-c3cnn(Cc4cccc(C(=O)NCS(=O)(=O)O)c4)c3)cccc21 (stereo not shown) [Example 222, (3-((4-(3-(4-(3-Chloro-2-methylphenoxy)butanoyl)-1a,2,3,7b-tetrahydro-1H-cyclopropa[c]quinolin-7-yl)-1H-pyrazol-1-yl)methyl)benzamido)methanesulfonic acid]
2 | 5000 nM | Cc1cccc(OCCCC(=O)N2CCCc3c(-c4cnn(CC5(CNC(=O)NCCS(=O)(=O)O)CC5)c4)cccc32)c1C [Example 69J, 2-(3-((1-((4-(1-(4-(2,3-Dimethylphenoxy)butanoyl)-1,2,3,4-tetrahydroquinolin-5-yl)-1H-pyrazol-1-yl)methyl)cyclopropyl)methyl)ureido)ethanesulfonic acid]
3 | 23 nM | Cc1c(Cl)cccc1OCCCC(=O)N1CCSc2c(-c3cnn(Cc4c(F)cc(C(=O)NCCS(=O)(=O)O)cc4Cl)c3)cccc21 [Example 574, 2-(3-Chloro-4-((4-(4-(4-(3-chloro-2-methylphenoxy)butanoyl)-3,4-dihydro-2H-benzo[b][1,4]thiazin-8-yl)-1H-pyrazol-1-yl)methyl)-5-fluorobenzamido) ethanesulfonic acid]
4 | 38 nM | Cc1c(Cl)cccc1OCCCC(=O)N1C[C@@H]2C[C@@H]2c2c(-c3cnn(Cc4cccc(N)c4)c3)cccc21 [Example 924A, 1-((1aR,7bS)-7-(1-(3-Aminobenzyl)-1H-pyrazol-4-yl)-1a,2-dihydro-1H-cyclopropa[c]quinolin-3(7bH)-yl)-4-(3-chloro-2-methylphenoxy)butan-1-one, TFA salt]
5 | 3950 nM | Cc1cccc(OCCCC(=O)N2CCCc3c(-c4cccc(COC(=O)N[C@H](Cc5c[nH]cn5)C(=O)O)c4)cccc32)c1C [Example 288, (R)-2-((3-(1-(4-(2,3-Dimethylphenoxy)butanoyl)-1,2,3,4-tetrahydroquinolin-5-yl)benzyloxy)carbonylamino)-3-(1H-imidazol-4-yl)propanoic acid]
6 | 31 nM | Cc1c(Cl)cccc1OCCCC(=O)N1C[C@@H]2C[C@@H]2c2c(-c3cnn(Cc4cccc(N5C(=O)CN(CC(=O)O)C5=O)c4)c3)cccc21 [Example 350, 2-(3-(3-((4-((1aR,7bS)-3-(4-(3-Chloro-2-methylphenoxy)butanoyl)-1a,2,3,7b-tetrahydro-1H-cyclopropa[c]quinolin-7-yl)-1H-pyrazol-1-yl)methyl)phenyl)-2,4-dioxoimidazolidin-1-yl) acetic acid]
7 | 646 nM | Cc1cccc(OCCCC(=O)N2CCCc3c(-c4cnn(C(C)c5cccc(NC(=O)NCCS(=O)(=O)O)c5)c4)cccc32)c1C (stereo not shown) [Example 82, 2-(3-(3-(1-(4-(1-(4-(2,3-Dimethylphenoxy)butanoyl)-1,2,3,4-tetrahydroquinolin-5-yl)-1H-pyrazol-1-yl)ethyl)phenyl)ureido)ethanesulfonic acid]
8 | 2580 nM | Cc1cccc(OCCCC(=O)N(C)c2cccc(-c3cnn(Cc4cccc(C(=O)O)c4)c3)c2)c1C [Example 339, 3-((4-(3-(4-(2,3-Dimethylphenoxy)-N-methylbutanamido)phenyl)-1H-pyrazol-1-yl)methyl) benzoic acid]
9 | 56 nM | Cc1cccc(OCCCC(=O)N2C[C@@H]3C[C@@H]3c3c(-c4cnn(Cc5cccc(NC(=O)NCCC(=O)O)c5)c4)cccc32)c1C (single isomer, unassigned) [Example 248]
10 | 43 nM | COC(=O)[C@@H](CCC(=O)O)NC(=O)c1ccc(Cl)c(Cn2cc(-c3cccc4c3[C@H]3C[C@H]3CN4C(=O)OCCOc3cccc(Cl)c3C)cn2)c1 [Example 672, (R)-4-(4-Chloro-3-((4-((1aR,7bS)-3-((2-(3-chloro-2-methylphenoxy)ethoxy)carbonyl)-1a,2,3,7b-tetrahydro-1H-cyclopropa[c]quinolin-7-yl)-1H-pyrazol-1-yl)methyl)benzamido)-5-methoxy-5-oxopentanoic acid]
11 | 3180 nM | Cc1cccc(OCCCC(=O)N2CCCc3c(-c4cccc(COC(=O)NC(Cc5c[nH]cn5)C(=O)O)c4)cccc32)c1C (stereo not shown) [Example 283, 2-((3-(1-(4-(2,3-Dimethylphenoxy)butanoyl)-1,2,3,4-tetrahydroquinolin-5-yl)benzyloxy)carbonylamino)-3-(1H-imidazol-4-yl)propanoic acid]
12 | 6560 nM | Cc1cccc(OCCCC(=O)N2CCCc3c(-c4cnn(CCNC(=O)C5(C(=O)O)CC5)c4)cccc32)c1C [Example 110H, 1-(2-(4-(1-(4-(2,3-Dimethylphenoxy)butanoyl)-1,2,3,4-tetrahydroquinolin-5-yl)-1H-pyrazol-1-yl)ethylcarbamoyl) cyclopropanecarboxylic acid]
13 | 176 nM | Cc1c(Cl)cccc1OCCCC(=O)N1CCCOc2c(-c3cnn(Cc4cccc(NC(=O)NCC(=O)O)c4)c3)cccc21 [Example 521, 2-(3-(3-((4-(5-(4-(3-Chloro-2-methylphenoxy)butanoyl)-2,3,4,5-tetrahydrobenzo[b] [1,4]oxazepin-9-yl)-1H-pyrazol-1-yl)methyl)phenyl)ureido)acetic acid]
14 | 636 nM | Cc1cccc(OCCCC(=O)N2CCCc3c(-c4cn(Cc5cccc(C(=O)O)c5)nc4C)cccc32)c1C [Example 32G, 3-((4-(1-(4-(2,3-Dimethylphenoxy)butanoyl)-1,2,3,4-tetrahydroquinolin-5-yl)-3-methyl-1H-pyrazol-1-yl)methyl)benzoic acid]
15 | 195 nM | Cc1c(Cl)cccc1OCCOC(=O)N1CCSc2c(-c3cnn(Cc4cccc(C(=O)NCCC(=O)O)c4Cl)c3)cccc21 [Example 628, 3-(2-Chloro-3-((4-(4-((2-(3-chloro-2-methylphenoxy)ethoxy)carbonyl)-3,4-dihydro-2H-benzo[b][1,4]thiazin-8-yl)-1H-pyrazol-1-yl)methyl)benzamido)propanoic acid]
16 | 1260 nM | Cc1c(Cl)cccc1OCCOC(=O)N1CC(O)COc2c(-c3cnn(Cc4c(F)cc(C(=O)O)cc4Cl)c3)cccc21 (stereo not shown) [Example 334, 3-Chloro-4-((4-(5-((2-(3-chloro-2-methylphenoxy)ethoxy)carbonyl)-3-hydroxy-2,3,4,5-tetrahydrobenzo[b][1,4]oxazepin-9-yl)-1H-pyrazol-1-yl)methyl)-5-fluorobenzoic acid]
17 | 644 nM | Cc1cccc(OCCCC(=O)N2C[C@H]3C[C@H]3c3c(-c4cnn(Cc5cccc(NC(=O)NCC(=O)O)c5)c4)cccc32)c1C (single isomer, unassigned) [Example 251]
18 | 200 nM | Cc1c(Cl)cccc1OCCCC(=O)N1Cc2ccccc2Oc2c(-c3cnn(Cc4c(F)cc(C(=O)NCCC(=O)O)cc4Cl)c3)cccc21 [Example 784, 3-(3-Chloro-4-((4-(10-(4-(3-chloro-2-methylphenoxy)butanoyl)-10,11-dihydrodibenzo[b,f][1,4]oxazepine-6-yl)-1H-pyrazol-1-yl)methyl)-5-fluorobenzamido)propanoic acid]
19 | 56 nM | Cc1cccc(OCCCC(=O)N2CCCc3c(-c4cnn(Cc5c(F)cc(C(=O)NCCC[C@H](NC(=N)N)C(=O)O)cc5Cl)c4)cccc32)c1C [Example 171, (S)-5-(3-Chloro-4-((4-(1-(4-(2,3-dimethylphenoxy)butanoyl)-1,2,3,4-tetrahydroquinolin-5-yl)-1H-pyrazol-1-yl)methyl)-5-fluorobenzamido)-2-guanidinopentanoic acid, TFA salt]
20 | 2170 nM | Cc1cccc(OCCCC(=O)N2CCCc3c(-c4cnn(Cc5cccc(N(C)C(=O)NCC[N+](C)(C)C)c5)c4)cccc32)c1C [Example 471, 2-(3-(3-((4-(1-(4-(2,3-Dimethylphenoxy)butanoyl)-1,2,3,4-tetrahydroquinolin-5-yl)-1H-pyrazol-1-yl)methyl)phenyl)-3-methylureido)-N,N,N-trimethylethanaminium, TFA salt]
21 | 193 nM | Cc1cccc(OCCCC(=O)N2CCCc3c(-c4cnn(Cc5cccc(C(=O)N[C@@H](C)C(=O)O)c5)c4)cccc32)c1C [Example 864, (S)-2-(3-((4-(1-(4-(2,3-Dimethylphenoxy)butanoyl)-1,2,3,4-tetrahydroquinolin-5-yl)-1H-pyrazol-1-yl)methyl)benzamido)propanoic acid]
22 | 1270 nM | Cc1cccc(OCCCC(=O)N2CCCc3c(-c4ccc(OCc5cccc(C(=O)O)c5)cn4)cccc32)c1C [Example 123, 3-((6-(1-(4-(2,3-Dimethylphenoxy)butanoyl)-1,2,3,4-tetrahydroquinolin-5-yl)pyridin-3-yloxy)methyl)benzoic acid]
